# Source: US20260125374A1, “PI3K-ALPHA INHIBITORS AND METHODS OF MAKING AND USING THE SAME” (Relay Therapeutics, Inc., priority 2021, published 2026)
# Marks after values point to notes of the source that are not given here.
# Experiments:
# [1] = Stability of the process (III-1 in solution); format: physicochemical
# [2] = Stability of III-1 & I-1 solid; format: physicochemical; settings: after 38 days; initial 99.0%
# [3] = Polymorph screening (equilibration, anti-solvent, slow evaporation, slow cooling, temperature cycling, heating-cooling; XRPD and SFC); format: physicochemical
# Experimental: This polymorph screening program of compound I-1 free form was performed with two batches of the pure enantiomer. Both batches are crystalline and is assigned as Form A. The polymorphic behaviors of the enantiomer were investigated by equilibration at 25° C. and 50° C., equilibration under a temperature cycle, crystallization from hot saturated solutions by slow cooling, slow evaporation, precipitation by addition of anti-solvent, and DSC heating-cooling cycle experiments. Relative stability of identified polymorphs was investigated by competitive slurry experiments.
# (§1) About 50 mg of I-1 Form A was weighed into a 2 mL glass vial and equilibrated in suitable amount of solvents (pretreated by molecular sieves) at 25° C. for 2 weeks with a stirring plate and with protection from light. Obtained suspensions were filtered with 0.45 μm nylon membrane and the solid parts (wet cake) were investigated by XRPD. When differences were observed, additional investigations were performed (e.g. DSC, TGA, ^1H-NMR, SFC).
# as §1, with “into” for “into a”, “vials” for “vial”, “50°” for “25°”, “10 days” for “2 weeks”, “investigation was” for “investigations were”
# I-1 Form A was dissolved in a good solvent. […] The solvents used were pretreated by molecular sieve. Precipitates were collected by filtration. The solid part (wet cake) was investigated by XRPD. […] When differences were observed, additional investigations were performed (e.g. DSC, TGA, ^1H-NMR, SFC).
# Based on approximate solubility results, I-1 Form A was dissolved in suitable amount of solvents (pretreated by molecular sieves). Obtained solutions were filtered by 0.45 μm nylon filter. […] Solid residues were examined for their polymorphic form. When differences were observed, additional investigations were performed (e.g. DSC, TGA, ^1H-NMR, SFC).
# Approximate 50 mg of batch I-1 Form A were dissolved in the minimal amount of selected solvents (without pretreatment by molecular sieves) at 50° C. Obtained solutions were filtered by 0.45 μm nylon filter. […] Precipitates were collected by filtration. The solid parts (wet cake) were investigated by XRPD. When differences were observed, additional investigations were performed (e.g. DSC, TGA, ^1H-NMR, SFC). When no precipitation was obtained or only a few solids were obtained, the solutions were placed at 5° C. for crystallization.
# About 50 mg of I-1 Form A was equilibrated in different solvents (pretreated by molecular sieves) under a temperature cycle between 5° C. to 50° C. at a heating/cooling rate of 0.2° C./min for 10 cycles and with protection from light. After 10 cycles, precipitates were collected at 5° C. by filtration. The solid parts (wet cake) were investigated by XRPD. When differences were observed, additional investigations were performed (e.g. DSC, TGA, 1H-NMR, SFC).
# Polymorphic behavior of I-1 Form A was investigated by two different heating-cooling cycles of DSC. Cycle 1:30° C. to 280° C. at 10° C./min; 280° C. to −20° C. at 20° C./min; reheat to 300° C. at 10° C./min. Cycle 2:30° C. to 280° C. at 10° C./min; 280° C. to-20° C. at 2° C./min; reheat to 300° C. at 10° C./min.
# [4] = Solubility in DCM/Methanol mixtures; format: physicochemical
# Experimental: The solubility was evaluated on various ratio of DCM and Methanol mixtures.
# [5] = system: PIK3CA-mediated AKT phosphorylation in MCF10A cells overexpressing hotspot PIK3CA mutations (H1047R, E542K, E545K); test: MCF10A Cell-Based PIK3CA Kinase Assay (CisBio Phospho-AKT (Ser473) HTRF assay); settings: Homo sapiens, MCF-10A, 2 hours compound incubation, read-out: Cell - PD - MCF10A H1047R/−−2483 (IC50)
# Experimental: Selected compounds of the present disclosure were tested in a MCF10A Cell-Based PIK3CA Kinase Assay, namely the CisBio Phospho-AKT (Ser473) HTRF assay, to measure the degree of PIK3CA-mediated AKT phosphorylation. MCF10A cells (immortalized non-transformed breast cell line) overexpressing hotspot PIK3CA mutations (including H1047R, E542K, and E545K mutations) were used. Cells were seeded at 5,000 cells per well in DMEM/F12 (Thermo Fisher Scientific) supplemented with […], 100 ng/ml Cholera Toxin, 10 μg/mL insulin, and 0.5% horse serum. Once plated, cells were placed in a 5% CO2, 37° C. incubator to adhere overnight.
# The following day, compounds were added to the cell plates in 12 doses of 1:3 serial dilutions. The dose response curves were run in duplicate. Compound addition was carried out utilizing an Echo 55 Liquid Handler acoustic dispenser (Labcyte). The cell plates were incubated for 2 hours in a 5% CO2, 37° C. incubator. Following compound incubation, the cells were lysed for 60 min at room temperature. Finally, a 4-hour incubation with the HTRF antibodies was performed at room temperature. All reagents, both lysis buffer and antibodies, were used from the CisBio pAKT S473 HTRF assay kit, as per the manufacturers protocol. Plates were read on an Envision 2105 (Perkin Elmer), and the IC50 values were calculated using Genedata software.
# [6] = Before stirring, 3 g product in solution
# [7] = dissolved in DCM/MeOH/DMF, concentrated to 3V, 16 h, 40° C.
# [8] = dissolved in MeOH, 34 h, 50° C.
# [9] = dissolved in MeOH, 42 h, 50° C.
# [10] = dissolved in MeOH, 60 h, 50° C.
# [11] = dissolved in MeOH, stirred 18 h, 34° C.
smiles,measurement,setting,value
"N#Cc1c(-c2cc(NC(=O)c3cc(F)cc(C(F)(F)F)c3)c3c(c2)C(=O)NC3c2cc(F)ccc2Cl)ccc2ncnn12 (racemic) [III-1, N-(3-(2-chloro-5-fluorophenyl)-6-(5-cyano-[1,2,4]triazolo[1,5-a]pyridin-6-yl)-1-oxoisoindolin-4-yl)-3-fluoro-5-(trifluoromethyl)benzamide]","HPLC/RRT Purity, RRT 1.00 (purity of III-1)",[1]; [6],96.23%
same,"HPLC/RRT Purity, impurity at RRT 0.41",[1]; [6],0.10%
same,"HPLC/RRT Purity, impurity at RRT 0.94",[1]; [6],0.62%
same,"HPLC/RRT Purity, impurity at RRT 1.37",[1]; [6],1.98%
same,"HPLC/RRT Purity, impurity at RRT 1.38",[1]; [6],0.31%
same,impurity @RRT 1.26 generated,"[1]; DCM/MeOH/DMF concentrated to 3V, 17 h at 40° C.",0.15%
same,impurity @RRT 0.74 generated,"[1]; MeOH, over 18 h at 34° C.",0.15%
same,purity after stirring in MeOH,"[1]; MeOH, over 18 h at 34° C.",96.0%
same,impurity @RRT 0.74,"[1]; MeOH, over 60 h at 50° C.",3.44%
same,purity after stirring in DCM/MeOH/DMF,"[1]; concentrated to 3V under 40° C., stirred for 17 h at 40° C.",94.57%
same,"HPLC/RRT Purity, RRT 1.00 (purity of III-1)",[1]; [7],94.57%
same,"HPLC/RRT Purity, impurity at RRT 0.41",[1]; [7],0.11%
same,"HPLC/RRT Purity, impurity at RRT 0.74",[1]; [7],0.03%
same,"HPLC/RRT Purity, impurity at RRT 0.94",[1]; [7],0.68%
same,"HPLC/RRT Purity, impurity at RRT 1.26",[1]; [7],0.33%
same,"HPLC/RRT Purity, impurity at RRT 1.37",[1]; [7],2.51%
same,"HPLC/RRT Purity, impurity at RRT 1.38",[1]; [7],0.46%
same,"HPLC/RRT Purity, RRT 1.00 (purity of III-1)",[1]; [8],93.53%
same,"HPLC/RRT Purity, impurity at RRT 0.41",[1]; [8],0.15%
same,"HPLC/RRT Purity, impurity at RRT 0.74",[1]; [8],2.49%
same,"HPLC/RRT Purity, impurity at RRT 0.94",[1]; [8],0.67%
same,"HPLC/RRT Purity, impurity at RRT 0.96",[1]; [8],0.20%
same,"HPLC/RRT Purity, impurity at RRT 1.26",[1]; [8],0.19%
same,"HPLC/RRT Purity, impurity at RRT 1.37",[1]; [8],2.13%
same,"HPLC/RRT Purity, impurity at RRT 1.38",[1]; [8],0.26%
same,"HPLC/RRT Purity, RRT 1.00 (purity of III-1)",[1]; [9],92.67%
same,"HPLC/RRT Purity, impurity at RRT 0.41",[1]; [9],0.17%
same,"HPLC/RRT Purity, impurity at RRT 0.74",[1]; [9],2.98%
same,"HPLC/RRT Purity, impurity at RRT 0.94",[1]; [9],0.67%
same,"HPLC/RRT Purity, impurity at RRT 0.96",[1]; [9],0.25%
same,"HPLC/RRT Purity, impurity at RRT 1.26",[1]; [9],0.38%
same,"HPLC/RRT Purity, impurity at RRT 1.37",[1]; [9],2.15%
same,"HPLC/RRT Purity, impurity at RRT 1.38",[1]; [9],0.20%
same,"HPLC/RRT Purity, RRT 1.00 (purity of III-1)",[1]; [10],91.45%
same,"HPLC/RRT Purity, impurity at RRT 0.41",[1]; [10],0.19%
same,"HPLC/RRT Purity, impurity at RRT 0.74",[1]; [10],3.45%
same,"HPLC/RRT Purity, impurity at RRT 0.94",[1]; [10],0.67%
same,"HPLC/RRT Purity, impurity at RRT 0.96",[1]; [10],0.40%
same,"HPLC/RRT Purity, impurity at RRT 1.26",[1]; [10],0.58%
same,"HPLC/RRT Purity, impurity at RRT 1.37",[1]; [10],2.26%
same,"HPLC/RRT Purity, impurity at RRT 1.38",[1]; [10],0.23%
same,"HPLC/RRT Purity, RRT 1.00 (purity of III-1)",[1]; [11],95.98%
same,"HPLC/RRT Purity, impurity at RRT 0.41",[1]; [11],0.10%
same,"HPLC/RRT Purity, impurity at RRT 0.74",[1]; [11],0.15%
same,"HPLC/RRT Purity, impurity at RRT 0.94",[1]; [11],0.59%
same,"HPLC/RRT Purity, impurity at RRT 1.37",[1]; [11],2.33%
same,"HPLC/RRT Purity, impurity at RRT 1.38",[1]; [11],0.29%
same,purity of solid after storage,[2],99.1%
same,ee %(SFC),"[3]; anti-solvent precipitation: MeOH / MTBE(4V), stirred at 25° C. for 23 days, SFC immediately after preparation",ee % (SFC): 2.7%*
same,ee %(SFC),"[3]; equilibration at 50° C. for 10 days in ACN/water(80:20, v/v), SFC immediately after preparation",ee % (SFC): 50.7%*.
same,ee %(SFC),"[3]; equilibration at 50° C. for 10 days in Acetone/water(60:40, v/v), SFC immediately after preparation",ee % (SFC): 56.9%*
same,ee %(SFC),"[3]; equilibration at 50° C. for 10 days in EtOH/water(50:50, v/v), SFC after preparation for about 12 h",ee % (SFC): 75.0%#;
same,ee %(SFC),"[3]; equilibration at 50° C. for 10 days in EtOH/water(50:50, v/v), SFC immediately after preparation","ee % (SFC): 76.9%*,"
same,ee %(SFC),"[3]; equilibration at 50° C. for 10 days in Methanol, SFC immediately after preparation",ee % (SFC): 48.4%*
same,ee %(SFC),"[3]; slow evaporation from MeOH, SFC immediately after preparation",ee % (SFC): 68.6%*
same,ee %(SFC),"[3]; solid from crystallization from DMF/Acetone water, SFC immediately after preparation",ee % (SFC): −0.3%*
same,solubility in DCM/MeOH=90:10 mixture,[4],limited solubility
[2H][C@@]1(c2cc(F)ccc2Cl)NC(=O)c2cc(-c3ccc4ncnn4c3C#N)cc(NC(=O)c3cc(F)cc(C(F)(F)F)c3)c21 [IV-2],IC50,[5],≤ 1000 nM
